Here are results for 68 molecules from patent US8106197B2, “Aminoheteroaryl compounds as protein kinase inhibitors” (Pfizer Inc., priority 2003, dated 2012).

This assay concerns the target T1, HGFR (Homo sapiens, UniProt P08581).
T1 construct: purchased Upstate 14-526
As to the kind of experiment: HGFR continuous-coupled spectrophotometric assay. The conditions noted are these: for inhibition at 0.05 µM: Table 5, percent c-MET inhibition at 50 nM. It counts as biochemical.

Molecules are shown by their SMILES.

T1 sequence (P08581 974-1390 limits assumed): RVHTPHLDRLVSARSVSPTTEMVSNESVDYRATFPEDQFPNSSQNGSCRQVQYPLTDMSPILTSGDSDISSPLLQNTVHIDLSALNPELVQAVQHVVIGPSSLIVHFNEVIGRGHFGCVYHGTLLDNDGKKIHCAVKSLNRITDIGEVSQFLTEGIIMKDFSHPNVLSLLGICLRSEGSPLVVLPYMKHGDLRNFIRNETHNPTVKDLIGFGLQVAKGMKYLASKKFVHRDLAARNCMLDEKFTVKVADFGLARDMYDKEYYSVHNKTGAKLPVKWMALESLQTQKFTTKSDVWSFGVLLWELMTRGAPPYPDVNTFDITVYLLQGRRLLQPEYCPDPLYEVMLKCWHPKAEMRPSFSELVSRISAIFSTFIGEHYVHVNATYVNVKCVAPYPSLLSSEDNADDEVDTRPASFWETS

With `COc1ccccc1CC(C)N(C)C(=O)c1ccc(-c2cnc(N)c(OC(C)c3c(Cl)ccc(F)c3Cl)c2)cc1` (centres unmarked), 0.05 µM produced 55% inhibition.
Regarding `CC(Oc1cc(-c2ccc(C(=O)N3CCCC(CO)C3)cc2)cnc1N)c1c(Cl)ccc(F)c1Cl` (centres unmarked), 0.05 µM produced 84% inhibition.
For the molecule `COc1ccc(C(NC(=O)c2ccc(-c3cnc(N)c(OC(C)c4c(Cl)ccc(F)c4Cl)c3)cc2)C2CC2)cc1` (centres unmarked), at 0.05 µM the inhibition was 67%.
On the same count and under the same terms, for `CC(=O)N(C)C1CCN(C(=O)c2ccc(-c3cnc(N)c(OC(C)c4c(Cl)ccc(F)c4Cl)c3)cc2)C1` (centres unmarked) the value was 70%.
As to `CC(=O)NC1CCN(C(=O)c2ccc(-c3cnc(N)c(OC(C)c4c(Cl)ccc(F)c4Cl)c3)cc2)C1` (centres unmarked), the inhibition (commonly the relative decrease from the control value, in per cent) at 0.05 µM worked out at 77%.
Turning to `Nc1ncc(C(=O)N2CCC(=O)CC2)cc1OCc1c(Cl)cccc1Cl`, the inhibition at 1 µM was 44%.
For the molecule `Nc1ncc(-c2ccc(C(=O)N3CCC(N4CCCC4)CC3)cc2)cc1OCc1cc(F)ccc1F`, the “% inhibition” value is “% inhibition = 24”.
With `Nc1ncc(-c2ccc(C(=O)N3CCC(N4CCCC4)CC3)cc2)cc1OCc1ccc(F)c(F)c1`, the “% inhibition” value is reported as “% inhibition = 19”.
On to `CC(C)c1ccc(COc2cc(-c3ccc(C(=O)N4CCC(N5CCCC5)CC4)cc3)cnc2N)cc1`, for which the “% inhibition” value is “% inhibition = 32”.
With `Nc1ncc(-c2ccc(C(=O)N3CCC(N4CCCC4)CC3)cc2)cc1OCc1ccccc1-c1ccccc1`, the “% inhibition” value is “% inhibition = 22”.
As for `Cc1noc(C)c1COc1cc(-c2ccc(C(=O)N3CCC(N4CCCC4)CC3)cc2)cnc1N`, the “% inhibition” value is reported as “% inhibition = 10”.
Take `Nc1ncc(-c2ccc(C(=O)N3CCC(N4CCCC4)CC3)cc2)cc1OCc1ccc(Cl)s1`: the “% inhibition” value is listed as “% inhibition = 19”.
Still for that read-out and setting: for `Nc1ncc(-c2ccc(C(=O)N3CCC(N4CCCC4)CC3)cc2)cc1OCc1ccncc1` the value was “% inhibition = 10”.
On to `Nc1ncc(-c2ccc(C(=O)N3CCC(N4CCCC4)CC3)cc2)cc1OCc1ccc(OCc2ccccc2)cc1`, for which the “% inhibition” value is “% inhibition = 49”.
Still for that read-out and setting: with `COc1ccc(OC)c(COc2cc(-c3ccc(C(=O)N4CCC(N5CCCC5)CC4)cc3)cnc2N)c1` the entry was “% inhibition = 19”; with `Nc1ncc(-c2ccc(C(=O)N3CCC(N4CCCC4)CC3)cc2)cc1OCc1nsc(Cl)n1`, “% inhibition = 5”; with `Nc1ncc(-c2ccc(C(=O)N3CCC(N4CCCC4)CC3)cc2)cc1OCc1nnsc1Cl`, “% inhibition = 10”.
As for `COc1cc(COc2cc(-c3ccc(C(=O)N4CCC(N5CCCC5)CC4)cc3)cnc2N)cc(OC)c1OC`, the “% inhibition” value was “% inhibition = 10”.
Take `Nc1ncc(-c2ccc(C(=O)N3CCC(N4CCCC4)CC3)cc2)cc1OCc1cc(Cl)cc(Cl)c1`: the “% inhibition” value is on record as “% inhibition = 19”.
On to `Nc1ncc(-c2ccc(C(=O)N3CCC(N4CCCC4)CC3)cc2)cc1OCc1cccc(Oc2ccccc2)c1`, for which the “% inhibition” value was “% inhibition = 34”.
`Nc1ncc(-c2ccc(C(=O)N3CCC(N4CCCC4)CC3)cc2)cc1OCc1cccc(Cl)c1Cl`: the “% inhibition” value was “% inhibition = 40”.
With `Cc1ccc(COc2cc(-c3ccc(C(=O)N4CCC(N5CCCC5)CC4)cc3)cnc2N)cc1Cl`, the “% inhibition” value was “% inhibition = 26”.
Same read-out and setting: with `Nc1ncc(-c2ccc(C(=O)N3CCC(N4CCCC4)CC3)cc2)cc1OCc1cc(Cl)ccc1Cl` the entry was “% inhibition = 26”; with `Nc1ncc(-c2ccc(C(=O)N3CCC(N4CCCC4)CC3)cc2)cc1OCc1nc(CS(=O)(=O)c2ccccn2)no1`, “% inhibition = 9”.
Turning to `Nc1ncc(-c2ccc(C(=O)N3CCC(N4CCCC4)CC3)cc2)cc1OCc1cc(-c2c(Cl)cccc2Cl)no1`, the “% inhibition” value is listed as “% inhibition = 14”.
Regarding `CC(=O)N(c1ccc(C)cc1)c1nc(COc2cc(-c3ccc(C(=O)N4CCC(N5CCCC5)CC4)cc3)cnc2N)cs1`, the “% inhibition” value is “% inhibition = 9”.
With `CC(Oc1cc(-c2ccc(C(=O)N3CCC(N4CCCC4)CC3)cc2)cnc1N)c1ccccc1` (centres unmarked), the “% inhibition” value is given as “% inhibition = 10”.
Turning to `Nc1ncc(-c2ccc(C(=O)N3CCC(N4CCCC4)CC3)cc2)cc1OCc1cccc(OC(F)(F)F)c1`, the “% inhibition” value is “% inhibition = 13”.
On to `Cc1cc(COc2cc(-c3ccc(C(=O)N4CCC(N5CCCC5)CC4)cc3)cnc2N)nc(-c2ccc(C(F)(F)F)cn2)n1`, for which the “% inhibition” value is “% inhibition = 8”.
On to `Nc1ncc(-c2ccc(C(=O)N3CCC(N4CCCC4)CC3)cc2)cc1OCc1cc(F)ccc1Br`, for which the “% inhibition” value is given as “% inhibition = 24”.
Take `Cc1cc(C)cc(COc2cc(-c3ccc(C(=O)N4CCC(N5CCCC5)CC4)cc3)cnc2N)c1`: the “% inhibition” value was “% inhibition = 14”.
`COc1cccc(COc2cc(-c3ccc(C(=O)N4CCC(N5CCCC5)CC4)cc3)cnc2N)c1`: the “% inhibition” value was “% inhibition = 15”.
On to `Nc1ncc(-c2ccc(C(=O)N3CCC(N4CCCC4)CC3)cc2)cc1OCc1ccc(Cl)cc1`, for which the “% inhibition” value is reported as “% inhibition = 15”.
Take `Nc1ncc(-c2ccc(C(=O)N3CCC(N4CCCC4)CC3)cc2)cc1OCc1cccc(Cl)c1F`: the “% inhibition” value is on record as “% inhibition = 28”.
Turning to `Nc1ncc(-c2ccc(C(=O)N3CCC(N4CCCC4)CC3)cc2)cc1OCc1ccc(Cl)c(Cl)c1`, the “% inhibition” value is recorded as “% inhibition = 26”.
As to `Nc1ncc(-c2ccc(C(=O)N3CCC(N4CCCC4)CC3)cc2)cc1OCc1cc(F)c(F)cc1F`, the “% inhibition” value is “% inhibition = 12”.
Still for that read-out and setting: with `Nc1ncc(-c2ccc(C(=O)N3CCC(N4CCCC4)CC3)cc2)cc1OCc1ccc(F)c(F)c1F` the entry was “% inhibition = 19”; with `Nc1ncc(-c2ccc(C(=O)N3CCC(N4CCCC4)CC3)cc2)cc1OCc1ccc(C(F)(F)F)cc1C(F)(F)F`, “% inhibition = 12”.
As to `Nc1ncc(-c2ccc(C(=O)N3CCC(N4CCCC4)CC3)cc2)cc1OCc1c(F)ccc(F)c1F`, the “% inhibition” value was “% inhibition = 30”.
The same measure, in the same setting: with `Nc1ncc(-c2ccc(C(=O)N3CCC(N4CCCC4)CC3)cc2)cc1OCc1ccc(C(F)(F)F)cc1` the entry was “% inhibition = 10”; with `Cc1cccc(COc2cc(-c3ccc(C(=O)N4CCC(N5CCCC5)CC4)cc3)cnc2N)c1F`, “% inhibition = 28”.
As to `CC(Oc1cc(-c2ccc(C(=O)N3CCC(N4CCCC4)CC3)cc2)cnc1N)c1ccccc1C(F)(F)F` (centres unmarked), the “% inhibition” value is “% inhibition = 21”.
On to `CC(=O)Nc1nc(COc2cc(-c3ccc(C(=O)N4CCC(N5CCCC5)CC4)cc3)cnc2N)cs1`, for which the “% inhibition” value was “% inhibition = 9”.
With `Nc1ncc(-c2ccc(C(=O)N3CCC(N4CCCC4)CC3)cc2)cc1OCc1ccccc1CS(=O)(=O)c1ccccc1`, the “% inhibition” value is on record as “% inhibition = 11”.
Take `Nc1ccc(-c2ccc(C(=O)N3CCC(N4CCCC4)CC3)cc2)cc1OC1OC(=O)c2ccccc21` (centres unmarked): the “% inhibition” value is reported as “% inhibition = 4”.
On to `Nc1ncc(-c2ccc(C(=O)N3CCC(N4CCCC4)CC3)cc2)cc1OCc1ccc(-c2csnn2)cc1`, for which the “% inhibition” value was “% inhibition = 41”.
With `Nc1ncc(-c2ccc(C(=O)N3CCC(N4CCCC4)CC3)cc2)cc1OCc1cc(F)cc2c1OCOC2`, the “% inhibition” value is reported as “% inhibition = 21”.
`CC(Oc1nc(-c2ccc(C(=O)N3CCC[C@H]3CN3CCCC3)cc2)cnc1N)c1c(Cl)cccc1Cl` (some centres unmarked): the “% inhibition” value is recorded as “% inhibition = 14”.
The same measure, in the same setting: for `Nc1ncc(-c2ccc(C(=O)N3CCC(N4CCCC4)CC3)cc2)cc1OCc1ccc(F)c(C(F)(F)F)c1` the value was “% inhibition = 13”.
Take `Nc1ncc(-c2ccc(C(=O)N3CCC(N4CCCC4)CC3)cc2)cc1OCc1cc(F)cc(C(F)(F)F)c1`: the “% inhibition” value was “% inhibition = 12”.
As for `Nc1ncc(-c2ccc(C(=O)N3CCC(N4CCCC4)CC3)cc2)cc1OCc1c(F)cccc1C(F)(F)F`, the “% inhibition” value is reported as “% inhibition = 31”.
On the same count and under the same terms, with `Nc1ncc(-c2ccc(C(=O)N3CCC(N4CCCC4)CC3)cc2)cc1OCc1cc(F)c(F)c(F)c1` the entry was “% inhibition = 19”; with `Nc1ncc(-c2ccc(C(=O)N3CCC(N4CCCC4)CC3)cc2)cc1OCc1ccccc1OC(F)F`, “% inhibition = 27”.
For `Nc1ncc(-c2ccc(C(=O)N3CCC(N4CCCC4)CC3)cc2)cc1OCc1ccc(C(F)(F)F)cc1F`, the “% inhibition” value was “% inhibition = 25”.
As to `Nc1ncc(-c2ccc(C(=O)N3CCC(N4CCCC4)CC3)cc2)cc1OCc1nc2ccccc2[nH]1`, the “% inhibition” value is on record as “% inhibition = 4”.
Regarding `Nc1ncc(-c2ccc(C(=O)N3CCC(N4CCCC4)CC3)cc2)cc1OCc1noc(-c2ccccc2)n1`, the “% inhibition” value is listed as “% inhibition = 16”.
For the molecule `CC(C)Cc1noc(COc2cc(-c3ccc(C(=O)N4CCC(N5CCCC5)CC4)cc3)cnc2N)n1`, the “% inhibition” value is listed as “% inhibition = 12”.
Take `Nc1ncc(-c2ccc(C(=O)N3CCC(N4CCCC4)CC3)cc2)cc1OCc1nc(-c2ccccc2)n[nH]1`: the “% inhibition” value was “% inhibition = 2”.
The same measure, in the same setting: with `Nc1ncc(-c2ccc(C(=O)N3CCC(N4CCCC4)CC3)cc2)cc1OCc1ccc(Cl)cc1Br` the entry was “% inhibition = 28”; with `Cc1cnccc1COc1cc(-c2ccc(C(=O)N3CCC(N4CCCC4)CC3)cc2)cnc1N`, “% inhibition = 11”.
Take `CCc1nc(COc2cc(-c3ccc(C(=O)N4CCC(N5CCCC5)CC4)cc3)cnc2N)no1`: the “% inhibition” value is recorded as “% inhibition = 5”.
In the case of `Nc1ncc(-c2ccc(C(=O)N3CCC(N4CCCC4)CC3)cc2)cc1OCc1nc(NC2CC2)c2ccccc2n1`, the “% inhibition” value is reported as “% inhibition = 6”.
`Nc1ncc(-c2ccc(C(=O)N3CCC(N4CCCC4)CC3)cc2)cc1OCc1nc(NCCO)c2ccccc2n1`: the “% inhibition” value is given as “% inhibition = 7”.
Consider `CCOC(=O)c1nc(COc2cc(-c3ccc(C(=O)N4CCC(N5CCCC5)CC4)cc3)cnc2N)no1`, for which the “% inhibition” value is on record as “% inhibition = 8”.
For the molecule `CNC(=O)c1ccc(OC)c(-c2noc(OCc3cc(-c4ccc(C(=O)N5CCC(N6CCCC6)CC5)cc4)cnc3N)n2)c1`, the “% inhibition” value is recorded as “% inhibition = 11”.
As to `Nc1ncc(-c2ccc(C(=O)N3CCC(N4CCCC4)CC3)cc2)cc1OCc1nc(-c2ccc(C(=O)N3CCCC3)cc2)no1`, the “% inhibition” value is reported as “% inhibition = 11”.
For the molecule `Nc1ncc(-c2ccc(C(=O)N3CCC(N4CCCC4)CC3)cc2)cc1OCc1nc(-c2cccc(C(=O)Nc3ccc(F)cc3)c2)no1`, the “% inhibition” value is recorded as “% inhibition = 64”.
Turning to `CC(C)NC(=O)c1ccc(-c2noc(COc3cc(-c4ccc(C(=O)N5CCC(N6CCCC6)CC5)cc4)cnc3N)n2)cc1`, the “% inhibition” value is reported as “% inhibition = 18”.
